Experimental data taken from patent publication US20240373851A1, “PEST CONTROL COMPOSITION AND PEST CONTROL METHOD” (SUMITOMO CHEMICAL COMPANY, LIMITED, priority 2021, published 2024).

What was measured:
Format in all cases: in vivo
[1] = tested on: German cockroaches (Blattella germanica); experiment: Test Example 6: control test against German cockroaches, spray in chamber; settings: adult German cockroaches; 1.5 mL sprayed; concentration [%]: isocycloseram 0.05, imiprothrin 0.01, lambda-cyhalothrin 0.0025, alone or mixed; 60 minutes after spraying
Method: (§1) Next, the usefulness of the inventive composition for controlling pests will be indicated by Test Examples. In general, the control effect to be expected when treated with a mixture obtained by mixing given two or three types of active ingredient compounds is determined by the Colby's calculation equation represented by the following [Equation 1] and [Equation 2].
(§2) [formula] • P: moribund and mortal rates (%) when treated with an active ingredient compound X in the concentration of m [ppm] • Q: moribund and mortal rates (%) when treated with an active ingredient compound Y in the concentration of n [ppm] • EA: moribund and mortal rates (%) when treated with an active ingredient compound X in the concentration of m [ppm] and an active ingredient compound Y in the concentration of n [ppm] (hereinafter referred to as expected value A) […]
(§3) Regarding the synergistic effect of three types of the active ingredient compounds, in case where the moribund and mortal rates (%) when actually treated with a mixture obtained by mixing three types of the active ingredient compounds exceed the expected value A calculated by using the moribund and mortal rates (%) when actually treated with a mixture obtained by mixing two types of the active ingredient compounds among three types thereof, and the moribund and mortal rates (%) calculated when actually treated the remaining one type of the active ingredient compound, or the expected value B (%) calculated from the moribund and mortal rates (%) when actually treated with each of three types of the active ingredient compounds alone, it was determined that the synergistic effect exists. […]

[2] = tested on: German cockroaches (Blattella germanica); experiment: Test Example 1: control test against German cockroaches, spray in chamber (cup without filter paper); settings: adult German cockroaches; 1.5 mL sprayed; concentration [%]: broflanilide 0.01, imiprothrin 0.01, cypermethrin 0.01, alone or mixed; 120 minutes after spraying
Method: as §1, §2
Regarding the synergistic effect of three types of the active ingredient compounds, in case where the moribund and mortal rates (%) when actually treated with a mixture obtained by mixing three types of the active ingredient compounds exceed the expected value A calculated by using the moribund and mortal rates (%) when actually treated with a mixture obtained by mixing two types of the active ingredient compounds among three types thereof, and the moribund and mortal rates (%) calculated when actually treated the remaining one type of the active ingredient compound, or the expected value B (%) calculated from the moribund and mortal rates (%) when actually treated with each of three types of the active ingredient compounds alone, it was determined that the synergistic effect exists.
In a plastic cup (diameter: 12.4 cm, height: 10.2 cm), ten adult German cockroaches (Blattella germanica) (five males and five females each) were released, and the plastic cup was placed in the center of the bottom of a box-shaped chamber (46 cm×46 cm×70 cm in height). […] After a lapse of 120 minutes from spraying, the number of dead and moribund individuals was examined, and moribund and mortal rates (%) were determined by the equation 3 below. […]

[3] = tested on: German cockroaches (Blattella germanica); experiment: Test Example 3: control test against German cockroaches, spray in chamber; settings: adult German cockroaches; 1.5 mL sprayed; concentration [%]: broflanilide 0.02, imiprothrin 0.01, cyfluthrin 0.0016, alone or mixed; 420 minutes after spraying
Source text: (§4) Next, the usefulness of the inventive composition for controlling pests will be indicated by Test Examples.
(§5) (hereinafter referred to as expected value A)
(§6) (hereinafter referred to as expected value B)
(§7) In a plastic cup (diameter: 12.4 cm, height: 10.2 cm) lined with a filter paper, ten adult German cockroaches (Blattella germanica) (five males and five females each) were released, and the plastic cup was placed in the center of the bottom of a box-shaped chamber (46 cm×46 cm×70 cm in height). From the height of 60 cm, 1.5 mL of each of formulations prepared by dissolving a single agent of any one of broflanilide, imiprothrin and cyfluthrin, or a mixed agent of two or more thereof in a mixture of isopropyl alcohol and Isopar M at a mixing ratio of 1:9 was sprayed under a spray pressure of 0.041 MPa. After a lapse of 420 minutes from spraying, the number of dead and moribund individuals was examined, and moribund and mortal rates (%) were determined by the above equation 3. The test was performed through two replicates. Dead individuals are completely immobile individuals, and moribund individuals are individuals who cannot get up when turned on their backs.

[4] = tested on: German cockroaches (Blattella germanica); experiment: Test Example 9: control test against German cockroaches, spray in chamber; settings: adult German cockroaches; 1.5 mL sprayed; concentration [%]: broflanilide 0.02, imiprothrin 0.01, permethrin 0.05, alone or mixed; 420 minutes after spraying
Source text: as §4, §5, §6
as §7, with “permethrin,” for “cyfluthrin,”

[5] = tested on: German cockroaches (Blattella germanica); experiment: Test Example 8: control test against German cockroaches, spray in chamber; settings: adult German cockroaches; 1.5 mL sprayed; concentration [%]: nicofluprole 0.01, imiprothrin 0.01, phenothrin 0.1, alone or mixed; 45 minutes after spraying
Method: as §1, §2, §3

[6] = tested on: German cockroaches (Blattella germanica); experiment: Test Example 5: control test against German cockroaches, spray in chamber; settings: adult German cockroaches; 1.5 mL sprayed; concentration [%]: nicofluprole 0.01, imiprothrin 0.01, cyfluthrin 0.0002, alone or mixed; 45 minutes after spraying
Source text: as §4, §5, §6
as §7, with “each) […]” for “each)”, “nicofluprole,” for “broflanilide,”, “45” for “420”

[7] = tested on: German cockroaches (Blattella germanica); experiment: Test Example 2: control test against German cockroaches, spray in chamber; settings: adult German cockroaches; 1.5 mL sprayed; concentration [%]: nicofluprole 0.01, imiprothrin 0.01, cypermethrin 0.01, alone or mixed; 120 minutes after spraying
Method: as §1, §2, §3

[8] = tested on: German cockroaches (Blattella germanica); experiment: Test Example 7: control test against German cockroaches, spray in chamber; settings: adult German cockroaches; 1.5 mL sprayed; concentration [%]: isocycloseram 0.05, imiprothrin 0.01, cypermethrin 0.01, alone or mixed; 120 minutes after spraying
Method: as §1, §2, §3

[9] = tested on: German cockroaches (Blattella germanica); experiment: Test Example 4: control test against German cockroaches, spray in chamber; settings: adult German cockroaches; 1.5 mL sprayed; concentration [%]: nicofluprole 0.01, imiprothrin 0.01, deltamethrin 0.0002, alone or mixed; 45 minutes after spraying
Method: as §1, §2, §3

SMILES: CC1(C)[C@H](C(=O)O[C@H](C#N)c2cccc(Oc3ccccc3)c2)[C@@H]1/C=C(\Cl)C(F)(F)F (racemic) [Lambda-cyhalothrin, lambda-cyhalothrin]
- Moribund and mortal rates [%] after 60 minutes [1]: 45%

SMILES: CN(C(=O)c1ccccc1)c1cccc(C(=O)Nc2c(Br)cc(C(F)(C(F)(F)F)C(F)(F)F)cc2C(F)(F)F)c1F [Broflanilide, broflanilide]
- Moribund and mortal rates [%] after 120 minutes [2]: 5%
- Moribund and mortal rates [%] after 420 minutes [3]: 70%
- Moribund and mortal rates [%] after 420 minutes [4]: 70%

SMILES: CC(C)=CC1C(C(=O)OCc2cccc(Oc3ccccc3)c2)C1(C)C (centres unmarked) [Phenothrin, phenothrin]
- Moribund and mortal rates [%] after 45 minutes [5]: 5%

SMILES: CC1(C)C(C=C(Cl)Cl)C1C(=O)OC(C#N)c1ccc(F)c(Oc2ccccc2)c1 (centres unmarked) [Cyfluthrin, cyfluthrin]
- Moribund and mortal rates [%] after 420 minutes [3]: 0%
- Moribund and mortal rates [%] after 45 minutes [6]: 0%

SMILES: CC1(C)C(C=C(Cl)Cl)C1C(=O)OC(C#N)c1cccc(Oc2ccccc2)c1 (centres unmarked) [Cypermethrin, cypermethrin]
- Moribund and mortal rates [%] after 120 minutes [2]: 45%
- Moribund and mortal rates [%] after 120 minutes [7]: 15%
- Moribund and mortal rates [%] after 120 minutes [8]: 50%

SMILES: CC1(C)[C@H](C(=O)O[C@H](C#N)c2cccc(Oc3ccccc3)c2)[C@@H]1C=C(Br)Br [Deltamethrin, deltamethrin]
- Moribund and mortal rates [%] after 45 minutes [9]: 0%
